Data from PubChem BioAssay (NCI).
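The concentration for 50% growth inhibition is given as GI50. The concentration for full growth arrest is given as TGI.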

Key:
Test in all cases: inhibition of tumour cell growth, NCI panel, 384-well format
[1] = test system: HOP-62 NSCLC
[2] = test system: MOLT-4 leukemia
[3] = test system: DU-145 prostate
[4] = test system: SR leukemia
[5] = test system: SF-268 CNS
[6] = test system: HL-60(TB) leukemia
[7] = test system: UO-31 renal
[8] = test system: A549 NSCLC
[9] = test system: HCC-2998 colon
[10] = test system: MDA-MB-468 breast
[11] = test system: HT29 colon
[12] = test system: UACC-257 melanoma
[13] = test system: 786-0 renal
[14] = test system: EKVX NSCLC
[15] = test system: NCI-H322M lung
[16] = test system: NCI/ADR-RES ovarian
[17] = test system: LOX IMVI melanoma
[18] = test system: BT-549 breast
[19] = test system: IGROV1 ovarian
[20] = test system: SK-MEL-5 melanoma
[21] = test system: HOP-92 NSCLC
[22] = test system: HS 578T breast
[23] = test system: SNB-75 CNS
[24] = test system: HCT-15 colon
[25] = test system: NCI-H522 lung
[26] = test system: MDA-MB-435 melanoma
[27] = test system: SK-MEL-28 melanoma
[28] = test system: UACC-62 melanoma
[29] = test system: SW-620 colon
[30] = test system: TK-10 renal
[31] = test system: OVCAR-4 ovarian
[32] = test system: U251 glioblastoma
[33] = test system: NCI-H460 NSCLC
[34] = test system: SF-295 CNS
[35] = test system: NCI-H23 lung
[36] = test system: COLO 205 colon
[37] = test system: SNB-19 CNS
[38] = test system: OVCAR-8 ovarian
[39] = test system: SK-OV-3 ovarian
[40] = test system: CAKI-1 renal
[41] = test system: OVCAR-3 ovarian
[42] = test system: OVCAR-5 ovarian
[43] = test system: M14 melanoma
[44] = test system: RXF 393 renal
[45] = test system: SF-539 CNS
[46] = test system: K-562 leukemia
[47] = test system: ACHN renal
[48] = test system: SN12C renal
[49] = test system: T-47D breast
[50] = test system: MALME-3M melanoma
[51] = test system: RPMI-8226 leukemia
[52] = test system: MDA-MB-231 breast
[53] = test system: A498 renal
[54] = test system: KM12 colon
[55] = test system: PC-3 prostate
[56] = test system: NCI-H226 lung
[57] = test system: CCRF-CEM leukemia
[58] = test system: MCF7 breast
[59] = test system: HCT-116 colon
[60] = test system: SK-MEL-2 melanoma

## CNC(=O)CN1CCC(Oc2cc3c(Nc4cccc(Cl)c4F)ncnc3cc2OC)CC1
[1]
  GI50: 8.39 µM
  TGI: 27.5 µM
[2]
  GI50: 14.1 µM
  TGI: 27.2 µM
[3]
  GI50: 3.88 µM
  TGI: 43.4 µM
[4]
  GI50: 15.1 µM
  TGI: 29.3 µM
[5]
  GI50: 9.9 µM
  TGI: 36.4 µM
[6]
  GI50: 18.9 µM
  TGI: 33 µM
[7]
  GI50: 12.4 µM
  TGI: > 100 µM
[8]
  GI50: 2.31 µM
  TGI: 17.7 µM
[9]
  GI50: 14.9 µM
  TGI: 28.4 µM
[10]
  GI50: < 0.01 µM
[11]
  GI50: 11.3 µM
  TGI: 24.6 µM
[12]
  GI50: 14.6 µM
  TGI: 28.1 µM
[13]
  GI50: 5.7 µM
  TGI: 24.6 µM
[14]
  GI50: 0.0357 µM
  TGI: 4.33 µM
[15]
  GI50: < 0.01 µM
  TGI: 1.89 µM
[16]
  GI50: 12.9 µM
  TGI: 29.4 µM
[17]
  GI50: 10.7 µM
  TGI: 22.6 µM
[18]
  GI50: 11.7 µM
  TGI: 27.1 µM
[19]
  GI50: 0.068 µM
  TGI: 1.55 µM
[20]
  GI50: 10.2 µM
  TGI: 21.9 µM
[21]
  GI50: 4.39 µM
  TGI: 20.2 µM
[22]
  GI50: 4.07 µM
  TGI: 16.1 µM
[23]
  GI50: 9.75 µM
  TGI: 34.1 µM
[24]
  GI50: 10.8 µM
  TGI: 22.8 µM
[25]
  GI50: 0.0493 µM
  TGI: 11.6 µM
[26]
  GI50: 26.6 µM
  TGI: 83.5 µM
[27]
  GI50: 13.9 µM
  TGI: 27 µM
[28]
  GI50: 13.9 µM
  TGI: 27.1 µM
[29]
  GI50: 13.9 µM
  TGI: 27.4 µM
[30]
  GI50: 0.0537 µM
  TGI: 13 µM
[31]
  GI50: 3.28 µM
  TGI: 24.3 µM
[32]
  GI50: 17.2 µM
  TGI: 36.3 µM
[33]
  GI50: 16.3 µM
  TGI: 34.1 µM
[34]
  GI50: 14.8 µM
  TGI: 28.3 µM
[35]
  GI50: 10.7 µM
  TGI: 30.8 µM
[36]
  GI50: 15.3 µM
  TGI: 28.7 µM
[37]
  GI50: 14.3 µM
  TGI: 45.2 µM
[38]
  GI50: 13.1 µM
  TGI: 43.2 µM
[39]
  GI50: 0.383 µM
  TGI: 11.3 µM
[40]
  GI50: 0.915 µM
  TGI: 13.5 µM
[41]
  GI50: 1.95 µM
  TGI: 14.8 µM
[42]
  GI50: 0.906 µM
  TGI: 10.9 µM
[43]
  GI50: 15.3 µM
  TGI: 29.1 µM
[44]
  GI50: 10.1 µM
  TGI: 25.5 µM
[45]
  GI50: 12.4 µM
  TGI: 25.5 µM
[46]
  GI50: 10.9 µM
  TGI: 23.3 µM
[47]
  GI50: 0.0298 µM
  TGI: 10.7 µM
[48]
  GI50: 0.426 µM
  TGI: 9.66 µM
[49]
  GI50: 0.38 µM
  TGI: 6.28 µM
[50]
  GI50: 12.8 µM
  TGI: 26.7 µM
[51]
  GI50: 9.35 µM
  TGI: 21.5 µM
[52]
  GI50: 4.2 µM
  TGI: 18.1 µM
[53]
  GI50: 12.4 µM
  TGI: 27.2 µM
[54]
  GI50: 18.7 µM
  TGI: 35.6 µM
[55]
  GI50: 14.7 µM
  TGI: 35 µM
[56]
  GI50: 11.1 µM
  TGI: 29.9 µM
[57]
  GI50: 15.3 µM
  TGI: 29.9 µM
[58]
  GI50: 10.3 µM
  TGI: 24.9 µM

## COc1cc(N2CCC(N3CCN(C)CC3)CC2)ccc1Nc1ncc(Cl)c(Nc2ccccc2S(=O)(=O)C(C)C)n1
[1]
  GI50: 0.356 µM
  TGI: 1.35 µM
[2]
  GI50: 0.202 µM
  TGI: 0.687 µM
[3]
  GI50: 0.3 µM
  TGI: 1.63 µM
[5]
  GI50: 0.397 µM
  TGI: 1.51 µM
[6]
  GI50: 0.0361 µM
  TGI: 0.187 µM
[7]
  GI50: 0.929 µM
  TGI: 2.14 µM
[10]
  GI50: 0.133 µM
  TGI: 0.315 µM
[59]
  GI50: 0.308 µM
  TGI: 1.63 µM
[11]
  GI50: 0.0486 µM
  TGI: 0.294 µM
[12]
  GI50: 0.571 µM
  TGI: 1.95 µM
[13]
  GI50: 1.01 µM
  TGI: 2.17 µM
[14]
  GI50: 0.0487 µM
  TGI: 0.263 µM
[18]
  GI50: 0.418 µM
  TGI: 1.32 µM
[19]
  GI50: 0.283 µM
  TGI: 1.16 µM
[21]
  GI50: 0.318 µM
  TGI: 1.31 µM
[25]
  GI50: 0.367 µM
  TGI: 1.49 µM
[26]
  GI50: 0.447 µM
  TGI: 1.96 µM
[27]
  GI50: 17.8 µM
  TGI: 32.3 µM
[28]
  GI50: 0.388 µM
  TGI: 1.69 µM
[29]
  GI50: 0.218 µM
  TGI: 1.18 µM
[30]
  GI50: 0.379 µM
  TGI: 1.51 µM
[31]
  GI50: 0.417 µM
  TGI: 12.2 µM
[60]
  GI50: 0.383 µM
  TGI: 1.83 µM
[33]
  GI50: 0.131 µM
  TGI: 1.07 µM
[35]
  GI50: 0.228 µM
  TGI: 1.39 µM
[36]
  GI50: 0.0518 µM
  TGI: 0.232 µM
[37]
  GI50: 1.22 µM
  TGI: 2.52 µM
[39]
  GI50: 1.11 µM
  TGI: 2.32 µM
[40]
  GI50: 0.49 µM
  TGI: 1.56 µM
[41]
  GI50: 0.517 µM
  TGI: 1.78 µM
[43]
  GI50: 0.491 µM
  TGI: 1.86 µM
[44]
  GI50: 0.294 µM
  TGI: 0.952 µM
[45]
  GI50: 0.246 µM
  TGI: 0.673 µM
[46]
  GI50: 0.404 µM
  TGI: 1.68 µM
[48]
  GI50: 0.385 µM
  TGI: 1.4 µM
[50]
  GI50: 0.494 µM
  TGI: 1.84 µM
[52]
  GI50: 0.556 µM
  TGI: 1.89 µM
[53]
  GI50: 0.79 µM
  TGI: 2.79 µM
[54]
  GI50: 0.319 µM
  TGI: 1.29 µM
[55]
  GI50: 1.03 µM
  TGI: 2.22 µM
[56]
  GI50: 0.118 µM
  TGI: 0.648 µM
